Experimental data: publication PMC11855827, “High-Throughput Screening of Five Compound Libraries for Anthelmintic Activity and Toxicity Leads to the Discovery of Two Flavonoid Compounds” (International Journal of Molecular Sciences, 2025)
Read-outs that look alike come from different tables or passages of the source.

Test system: C. elegans
Assay: microbe, parasite or virus in culture
Conditions: Caenorhabditis elegans
[1] = 0 h, read-out: Percentage of motility inhibition 0 h, Table S2, C. elegans SS assay, 110 μM, 0 h, averages of 4 data points
[2] = 24 h, read-out: Percentage of motility inhibition 24 h, Table S2, C. elegans SS assay, 110 μM, 24 h, averages of 4 data points
[3] = 0 h, read-out: Percentage of motility inhibition 0 h
[4] = 24 h, read-out: Percentage of motility inhibition 24 h

`CC[C@H]1CN2CC[C@H]1C[C@H]2[C@H](O)c1ccnc2ccc(OC)cc12` [Hydroquinine] gave an inhibition at 110 µM [1] of 0% and an inhibition at 110 µM [2] of 0%.
Work on `CC(=O)O[C@@]12CO[C@@H]1C[C@H](O)[C@@]1(C)C(=O)[C@H](O)C3=C(C)[C@@H](OC(=O)[C@H](O)[C@@H](NC(=O)OC(C)(C)C)c4ccccc4)C[C@@](O)([C@@H](OC(=O)c4ccccc4)[C@H]21)C3(C)C` [Docetaxel] yielded an inhibition at 110 µM [1] of 1% and an inhibition at 110 µM [2] of 15%.
With `CC(C)(C)OC(=O)N[C@H]1CCCCC/C=C\[C@@H]2C[C@@]2(C(=O)NS(=O)(=O)C2CC2)NC(=O)[C@@H]2C[C@@H](OC(=O)N3Cc4cccc(F)c4C3)CN2C1=O` [Danoprevir] the inhibition at 110 µM [1] was 60% and the inhibition at 110 µM [2] was 24%.
With `CC(=O)c1ccc[nH]1` [2‐Acetylpyrrole] the inhibition at 110 µM [1] was 26% and the inhibition at 110 µM [2] was 18%.
`O=c1c(-c2ccc(O)cc2)coc2cc(O[C@@H]3O[C@H](CO)[C@@H](O)[C@H](O)[C@H]3O)cc(O)c12` [Genistin] was tested, and the inhibition at 110 µM [1] was 29% and the inhibition at 110 µM [2] was 19%.
`C[C@@H]1O[C@@H](O[C@H]2CC[C@]3(C=O)[C@H]4CC[C@]5(C)[C@@H](C6=CC(=O)OC6)CC[C@]5(O)[C@@H]4CC[C@]3(O)C2)[C@H](O)[C@H](O)[C@H]1O` [Convallatoxin] gave an inhibition at 110 µM [1] of 2% and an inhibition at 110 µM [2] of 3%.
Molecule `COc1cc2c(=O)c(-c3ccc(O)cc3)coc2cc1O` [Glycitein] has an inhibition at 110 µM [1] of 0% and an inhibition at 110 µM [2] of 0%.
In the case of `COc1cc2c(c(OC)c1OC)-c1ccc(OC)c(=O)cc1[C@@H](NC(C)=O)CC2` [Colchicine], the inhibition at 110 µM [3] was 0% and the inhibition at 110 µM [4] was 6%.
`CC1=CCC(C(C)C)=CC1` [γ-Terpinene] gave an inhibition at 110 µM [1] of 6% and an inhibition at 110 µM [2] of 31%.
Molecule `C/C=C(\C)C(=O)O[C@H]1[C@H](O)[C@]2(COC(C)=O)[C@H](O)C[C@]3(C)C(=CC[C@@H]4[C@@]5(C)CC[C@H](O[C@@H]6O[C@H](C(=O)O)[C@@H](O[C@@H]7O[C@H](CO)[C@@H](O)[C@H](O)[C@H]7O)[C@H](O)[C@H]6O[C@@H]6O[C@H](CO)[C@@H](O)[C@H](O)[C@H]6O)[C@](C)(CO)[C@@H]5CC[C@]43C)[C@@H]2CC1(C)C` [Isoescin IA] has an inhibition at 110 µM [1] of 8% and an inhibition at 110 µM [2] of 1%.
With `CC(C)CCC[C@@H](C)[C@H]1CC[C@H]2[C@@H]3CC=C4C[C@@H](O)CC[C@]4(C)[C@H]3CC[C@]12C` [Cholesterol] the inhibition at 110 µM [1] was 24% and the inhibition at 110 µM [2] was 17%.
With `C[C@H](CCC(=O)NCCS(=O)(=O)O)[C@H]1CC[C@H]2[C@@H]3CC[C@@H]4C[C@H](O)CC[C@]4(C)[C@H]3C[C@H](O)[C@]12C` [Taurodeoxycholic acid] the inhibition at 110 µM [1] was 0% and the inhibition at 110 µM [2] was 7%.
In the case of `CN1CCc2cc3c(cc2C1O)OCO3` (stereo not drawn) [Hydrastinine], the inhibition at 110 µM [1] was 1% and the inhibition at 110 µM [2] was 4%.
Work on `CC1OC(OCC2OC(Oc3c(-c4ccc(O)cc4)oc4cc(OC5OC(C)C(O)C(O)C5O)cc(O)c4c3=O)C(O)C(O)C2O)C(O)C(O)C1O` (stereo not drawn) [Robinin] yielded an inhibition at 110 µM [1] of 31% and an inhibition at 110 µM [2] of 8%.
`COc1ccc2c(c1)[nH]c1c(C)nccc12` [Harmine] showed an inhibition at 110 µM [3] of 36% and an inhibition at 110 µM [4] of 4%.
Work on `C[C@H]1CC[C@@H]2[C@@H](C)[C@H]3[C@H](C[C@H]4[C@@H]5CC=C6C[C@@H](O)CC[C@]6(C)[C@H]5CC[C@]34C)N2C1` [Solanidine] yielded an inhibition at 110 µM [1] of 0% and an inhibition at 110 µM [2] of 0%.
`C=C1C(=O)O[C@@]23[C@H]1CC[C@@H](C)[C@@H]2CC[C@@]1(C)O[C@@H]31` [Arteannuin B] was tested, and the inhibition at 110 µM [1] was 13% and the inhibition at 110 µM [2] was 11%.
In the case of `CC1(C)C[C@@H](O)[C@]2(C)CC[C@]3(C)C(=CC[C@@H]4[C@@]5(C)CC[C@H](O)[C@](C)(CO)[C@@H]5CC[C@]43C)[C@@H]2C1` [Soyasapogenol B], the inhibition at 110 µM [1] was 9% and the inhibition at 110 µM [2] was 39%.
In the case of `O=c1c(O[C@@H]2O[C@H](CO)[C@H](O)[C@H](O)[C@H]2O)c(-c2ccc(O)c(O)c2)oc2cc(O)cc(O)c12` [Hyperoside], the inhibition at 110 µM [1] was 14% and the inhibition at 110 µM [2] was 11%.
Molecule `CC1(C)CC[C@]2(C(=O)O)CC[C@]3(C)C(=CC[C@@H]4[C@@]5(C)CC[C@H](O)[C@@](C)(CO)[C@@H]5CC[C@]43C)[C@@H]2C1` [Hederagenin] has an inhibition at 110 µM [3] of 30% and an inhibition at 110 µM [4] of 21%.
Molecule `COc1ccc(NS(=O)(=O)c2ccc(N)cc2)nn1` [Sulfamethoxypyridazine] has an inhibition at 110 µM [1] of 2% and an inhibition at 110 µM [2] of 8%.
`C[C@H]1COc2c(N3CCN(C)CC3)c(F)cc3c(=O)c(C(=O)O)cn1c23` [Levofloxacin] was tested, and the inhibition at 110 µM [1] was 9% and the inhibition at 110 µM [2] was 10%.
With `O=C1CN(/N=C/C=C/c2ccc([N+](=O)[O-])o2)C(=O)N1` [Furagin] the inhibition at 110 µM [1] was 6% and the inhibition at 110 µM [2] was 0%.
Molecule `CC1(C)C(C=C(Cl)Cl)C1C(=O)OCc1cccc(Oc2ccccc2)c1` (stereo not drawn) [Permethrin] has an inhibition at 110 µM [1] of 9% and an inhibition at 110 µM [2] of 7%.
Molecule `COc1ccc(-c2oc3cc(O)cc(O)c3c(=O)c2O)cc1O` [Tamarixetin] has an inhibition at 110 µM [1] of 20% and an inhibition at 110 µM [2] of 10%.
For `COc1ccccc1O` [Guaiacol], the inhibition at 110 µM [1] was 6% and the inhibition at 110 µM [2] was 10%.
For `OCc1ccccc1` [Benzyl alcohol], the inhibition at 110 µM [1] was 2% and the inhibition at 110 µM [2] was 4%.
With `CC1=CC(=O)CC(C)(C)[C@@]1(O)/C=C/C(C)=C\C(=O)O` [Abscisic acid] the inhibition at 110 µM [1] was 0% and the inhibition at 110 µM [2] was 11%.
`O=[N+]([O-])C(Br)(CO)CO` [Bronopol] was tested, and the inhibition at 110 µM [1] was 19% and the inhibition at 110 µM [2] was 24%.
`C[C@H]1[C@H](C)CC[C@]2(C(=O)O)CC[C@]3(C)C(=CC[C@@H]4[C@@]5(C)CCC(=O)C(C)(C)[C@@H]5CC[C@]43C)[C@H]12` [Ursonic acid] was tested, and the inhibition at 110 µM [3] was 18% and the inhibition at 110 µM [4] was 23%.
`O=C1CCC[C@@H]2[C@H]3CCCN4CCC[C@@H](CN12)[C@@H]34` [Matrine] showed an inhibition at 110 µM [2] of 2%.
`O=C1NCN(c2ccccc2)C12CCN(CCCOc1ccc(F)cc1)CC2` [Spiramide] gave an inhibition at 110 µM [1] of 49% and an inhibition at 110 µM [2] of 6%.
`O=C1c2c(O)cc(O)cc2O[C@H](c2ccc(O)cc2)[C@H]1O` [Dihydrokaempferol] showed an inhibition at 110 µM [1] of 2% and an inhibition at 110 µM [2] of 0%.
`COc1cc(NCc2ccc3nc(N)nc(N)c3c2C)cc(OC)c1OC` [Trimetrexate] gave an inhibition at 110 µM [1] of 15% and an inhibition at 110 µM [2] of 0%.
In the case of `CC1=CC(=O)[C@@H]2C[C@H]1C2(C)C` [Verbenone], the inhibition at 110 µM [1] was 4% and the inhibition at 110 µM [2] was 4%.
`N[C@@H](Cc1ccccc1)C(=O)O` [L-Phenylalanine] showed an inhibition at 110 µM [1] of 23% and an inhibition at 110 µM [2] of 21%.
With `COC(=O)C1=CC[C@@]23CC[C@@H]([C@@](C)(/C=C/C=C(\C)C(=O)O)OC2=O)[C@@]3(O)CC1` [Pseudolaric Acid C] the inhibition at 110 µM [1] was 31% and the inhibition at 110 µM [2] was 42%.
In the case of `Cc1nnc(NS(=O)(=O)c2ccc(N)cc2)s1` [Sulfamethizole], the inhibition at 110 µM [1] was 4% and the inhibition at 110 µM [2] was 0%.
`Nc1ccn([C@@H]2CS[C@H](CO)O2)c(=O)n1` [Lamivudine] showed an inhibition at 110 µM [1] of 23% and an inhibition at 110 µM [2] of 5%.
`C[C@H](CC[C@@H](O)C(C)(C)O)[C@H]1CC[C@@]2(C)[C@@H]3CC=C4[C@@H](CC[C@H](O)C4(C)C)[C@]3(C)C(=O)C[C@]12C` [Bryodulcosigenin] gave an inhibition at 110 µM [1] of 16% and an inhibition at 110 µM [2] of 15%.
`CC(C)CC(C)c1sccc1NC(=O)c1cn(C)nc1C(F)(F)F` (stereo not drawn) [Penthiopyrad] was tested, and the inhibition at 110 µM [1] was 21% and the inhibition at 110 µM [2] was 18%.
